Results reported in PMC4047093, “Structural Insights into SraP-Mediated Staphylococcus aureus Adhesion to Host Cells” (PLoS Pathogens, 2014).

What was measured:
L-lectin module of SraP = L-lectin module of SraP (Staphylococcus aureus, UniProt Q2FUW1); assay: SPR (Biacore […]), steady state, […] Langmuir fit; type: binding; settings: 10 mM HEPES pH 7.5, 150 mM NaCl, 0.005% Tween 20, 25 °C; protein immobilised on CM5 chip; Neu5Ac 0.12-10 mM
[1] = biological target: the molecule itself; assay: SEC; Superdex 75 column, CDHL-1&2 against protein markers of 67, 44, 25, 17 and 13.7 kDa

Sequence of L-lectin module of SraP (Q2FUW1 245-491): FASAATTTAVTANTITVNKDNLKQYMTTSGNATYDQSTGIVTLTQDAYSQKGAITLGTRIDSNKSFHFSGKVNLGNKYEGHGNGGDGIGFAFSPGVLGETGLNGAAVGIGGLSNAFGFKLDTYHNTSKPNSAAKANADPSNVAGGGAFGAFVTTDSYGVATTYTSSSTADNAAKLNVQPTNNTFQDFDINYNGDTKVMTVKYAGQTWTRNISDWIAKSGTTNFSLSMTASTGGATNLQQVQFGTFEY

Row | Molecule | Kd (L-lectin module of SraP) | stoichiometry N [1]
1 | CC(=O)N[C@H]1[C@H]([C@H](O)[C@H](O)CO)OC(O)(C(=O)O)C[C@@H]1O (some centres unmarked) [N-acetylneuraminic acid] | 540 µM | –
2 | CDHL-1&2 (tandem cadherin-like modules of SraP, Ala576–Asn751) (domain or fragment, modules CDHL-1 and CDHL-2, residues Ala576–Asn751; Lacks the two Ca-2 coordinating residues Asp573 and Lys575; also called CDHL-1&2 modules; tandem CDHL modules; source: E. coli BL21, purified (Ni-NTA, Superdex 200 or Superdex 75)) APTVTVGNQTIEVGKTMNPIVLTTTDNGTGTVTNTVTGLPSGLSYDSATNSIIGTPTKIGQSTVTVVSTDQANNKSTTTFTINVVDTTAPTVTPIGDQSSEVYSPISPIKIATQDNSGNAVTNTVTGLPSGLTFDSTNNTISGTPTNIGTSTISIVSTDASGNKTTTTFKYEVTRN | – | 2
